Results reported in US20240409585A1, “MACROCYCLIC IMMUNOMODULATORS” (priority 2021, published 2024).
Bridge positions count the residues as written; N and C are the ends. Square brackets hold non-standard residues; d marks the D form. Peptide text beside a SMILES is read from it. * marks the point of attachment. Bip = N[C@@H](Cc1ccc(-c2ccccc2)cc1)C(=O)O; Cha = N[C@@H](CC1CCCCC1)C(=O)O; Carboxymethyl = O=C(O)C*; NMeA = CN[C@@H](C)C(=O)O; Dab = NCC[C@H](N)C(=O)O; Dap = NC[C@H](N)C(=O)O

biological target: T1, PE-labeled human PD-L1-Ig binding to Jurkat cell line over-expressing human PD-1 (Jurkat-PD-1) (Homo sapiens, UniProt Q15116); experiment: Jurkat-PD-1 Cell Binding High-Content Screening Assay (CBA): Method 1; details: Jurkat-hPD-1 cells, PE-labeled PD-L1-Ig 20 nM final; read-out: Jurkat HPDL1 PD1 IC50 (uM) (Method 1)
T1 construct: expressed in transfected cells; host or cells: Jurkat
T1 sequence (Q15116 25-288): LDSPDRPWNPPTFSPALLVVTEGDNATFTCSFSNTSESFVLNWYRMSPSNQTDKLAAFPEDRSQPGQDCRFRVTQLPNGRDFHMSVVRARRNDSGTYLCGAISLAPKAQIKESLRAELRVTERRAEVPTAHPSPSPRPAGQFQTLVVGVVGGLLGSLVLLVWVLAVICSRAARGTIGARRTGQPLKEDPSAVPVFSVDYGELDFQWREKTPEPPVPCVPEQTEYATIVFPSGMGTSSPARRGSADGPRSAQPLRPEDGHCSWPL

SMILES	IC50
CC(C)C[C@@H]1NC(=O)[C@H](Cc2c[nH]c3ccccc23)NC(=O)[C@H](CC(=O)O)NC(=O)[C@H](Cc2ccc(O)cc2)NC(=O)[C@H](Cc2ccccc2)NC(=O)CSC[C@@H](C(=O)NCC(N)=O)NC(=O)[C@H]([C@@H](C)O)NC(=O)[C@H](C(C)C)NC(=O)[C@H](CC(C)C)NC(=O)[C@H](CCN)NC(=O)[C@@H](C)NC(=O)[C@H](C)N(C)C(=O)[C@H](C(C)C)NC(=O)[C@H](Cc2ccc(-c3ccccc3)cc2)NC1=O [Compound 1477] ({CH2CO}-FYDWL[Bip]V[NMeA][dA][Dab]LVTCG-NH2; thioether N-14)	0.02 µM
CC(C)C[C@@H]1NC(=O)[C@H](Cc2c[nH]c3ccccc23)NC(=O)[C@H](CC(=O)O)NC(=O)[C@H](Cc2ccc(O)cc2)NC(=O)[C@H](Cc2ccccc2)NC(=O)CSC[C@@H](C(=O)N[C@@H](C)C(N)=O)NC(=O)[C@H]([C@@H](C)O)NC(=O)[C@H](C(C)C)NC(=O)[C@H](CC(C)C)NC(=O)[C@H](CCN)NC(=O)[C@@H](C)NC(=O)[C@H](C)N(C)C(=O)[C@H](C(C)C)NC(=O)[C@H](Cc2ccc(-c3ccccc3)cc2)NC1=O [Compound 1478] ({CH2CO}-FYDWL[Bip]V[NMeA][dA][Dab]LVTCA-NH2; thioether N-14)	0.02 µM
CC(C)C[C@@H]1NC(=O)[C@H](Cc2c[nH]c3ccccc23)NC(=O)[C@H](CC(=O)O)NC(=O)[C@H](Cc2ccc(O)cc2)NC(=O)[C@H](Cc2ccccc2)NC(=O)CSC[C@@H](C(=O)NCC(N)=O)NC(=O)[C@H](CO)NC(=O)[C@H](C(C)C)NC(=O)[C@H](CC(C)C)NC(=O)[C@H](CCN)NC(=O)[C@@H](C)NC(=O)[C@H](C)N(C)C(=O)[C@H](C(C)C)NC(=O)[C@H](Cc2ccc(-c3ccccc3)cc2)NC1=O [Compound 1479] ({CH2CO}-FYDWL[Bip]V[NMeA][dA][Dab]LVSCG-NH2; thioether N-14)	0.02 µM
CC[C@H](C)[C@@H]1NC(=O)[C@H](Cc2ccc(-c3ccccc3)cc2)NC(=O)[C@H](C(C)C)NC(=O)[C@H](Cc2c[nH]c3ccccc23)NC(=O)[C@H](CC(=O)O)NC(=O)[C@H](Cc2ccc(O)cc2)NC(=O)[C@H](CC(N)=O)NC(=O)CSC[C@@H](C(=O)N[C@@H](C)C(N)=O)NC(=O)[C@H](CO)NC(=O)[C@H](C(C)C)NC(=O)[C@H](CC(C)C)NC(=O)[C@H](CCCCN)NC(=O)[C@@H](CC(C)C)NC(=O)[C@H](C)N(C)C1=O [Compound 1480] ({CH2CO}-NYDWV[Bip]I[NMeA][dL]KLVSCA-NH2; thioether N-14)	0.04 µM
CC(C)C[C@@H]1NC(=O)[C@H](CCCCN)NC(=O)[C@@H](CC(C)C)NC(=O)[C@H](C)N(C)C(=O)[C@H](Cc2cnc[nH]2)NC(=O)[C@H](Cc2ccc(-c3ccccc3)cc2)NC(=O)[C@H](C(C)C)NC(=O)[C@H](Cc2c[nH]c3ccccc23)NC(=O)[C@H](CC(=O)O)NC(=O)[C@H](Cc2ccc(O)cc2)NC(=O)[C@H](CC(N)=O)NC(=O)CSC[C@@H](C(=O)N[C@@H](C)C(N)=O)NC(=O)[C@H]([C@@H](C)O)NC(=O)[C@H](C(C)C)NC1=O [Compound 1481] ({CH2CO}-NYDWV[Bip]H[NMeA][dL]KLVTCA-NH2; thioether N-14)	0.12 µM
CC(C)C[C@@H]1NC(=O)[C@H](CCCCN)NC(=O)[C@@H](CC(C)C)NC(=O)[C@H](C)N(C)C(=O)[C@H](Cc2cnc[nH]2)NC(=O)[C@H](Cc2ccc(-c3ccccc3)cc2)NC(=O)[C@H](C(C)C)NC(=O)[C@H](Cc2c[nH]c3ccccc23)NC(=O)[C@H](CC(=O)O)NC(=O)[C@H](Cc2ccc(O)cc2)NC(=O)[C@H](CC(N)=O)NC(=O)CSC[C@@H](C(=O)N[C@@H](C)C(N)=O)NC(=O)[C@H](CO)NC(=O)[C@H](C(C)C)NC1=O [Compound 1482] ({CH2CO}-NYDWV[Bip]H[NMeA][dL]KLVSCA-NH2; thioether N-14)	0.11 µM
CC(C)C[C@@H]1NC(=O)[C@H](CCCCN)NC(=O)[C@@H](CC(C)C)NC(=O)[C@H](C)N(C)C(=O)[C@H](Cc2cnc[nH]2)NC(=O)[C@H](Cc2ccc(-c3ccccc3)cc2)NC(=O)[C@H](C(C)C)NC(=O)[C@H](Cc2c[nH]c3ccccc23)NC(=O)[C@H](CC(=O)O)NC(=O)[C@H](Cc2ccc(O)cc2)NC(=O)[C@H](CC(N)=O)NC(=O)CSC[C@@H](C(=O)NCC(N)=O)NC(=O)[C@H](CO)NC(=O)[C@H](C(C)C)NC1=O [Compound 1483] ({CH2CO}-NYDWV[Bip]H[NMeA][dL]KLVSCG-NH2; thioether N-14)	0.06 µM
CC(C)C[C@@H]1NC(=O)[C@H](CCCCN)NC(=O)[C@@H](CC(C)C)NC(=O)[C@H](C)N(C)C(=O)[C@H](Cc2cnc[nH]2)NC(=O)[C@H](Cc2ccc(-c3ccccc3)cc2)NC(=O)[C@H](C(C)C)NC(=O)[C@H](Cc2c[nH]c3ccccc23)NC(=O)[C@H](CC(=O)O)NC(=O)[C@H](Cc2ccc(O)cc2)NC(=O)[C@H](CC(N)=O)NC(=O)CSC[C@@H](C(=O)NCC(N)=O)NC(=O)[C@H]([C@@H](C)O)NC(=O)[C@H](C(C)C)NC1=O [Compound 1484] ({CH2CO}-NYDWV[Bip]H[NMeA][dL]KLVTCG-NH2; thioether N-14)	0.07 µM

Now from value to molecule:

IC50	SMILES
0.39 µM	CC(C)C[C@H]1NC(=O)[C@H](C)N(C)C(=O)[C@H](C(C)C)NC(=O)[C@H](Cc2ccc(-c3ccccc3)cc2)NC(=O)[C@H](C(C)C)NC(=O)[C@H](Cc2c[nH]c3ccccc23)NC(=O)[C@H](CC(=O)O)NC(=O)[C@H](Cc2ccc(O)cc2)NC(=O)[C@H](CN)NC(=O)CSC[C@@H](C(=O)N[C@@H](C)C(N)=O)NC(=O)[C@H]([C@@H](C)O)NC(=O)[C@H](C(C)C)NC(=O)[C@H](CC2CCCCC2)NC(=O)[C@H](CCCNC(=N)N)NC1=O [Compound 1485] ({CH2CO}-[Dap]YDWV[Bip]V[NMeA][dL]R[Cha]VTCA-NH2; thioether N-14)
0.62 µM	CC(C)C[C@H]1NC(=O)[C@H](C)N(C)C(=O)[C@H](C(C)C)NC(=O)[C@H](Cc2ccc(-c3ccccc3)cc2)NC(=O)[C@H](C(C)C)NC(=O)[C@H](Cc2c[nH]c3ccccc23)NC(=O)[C@H](CC(=O)O)NC(=O)[C@H](Cc2ccc(O)cc2)NC(=O)[C@H](Cc2ccc(OCC(=O)O)cc2)NC(=O)CSC[C@@H](C(=O)N[C@@H](C)C(N)=O)NC(=O)[C@H]([C@@H](C)O)NC(=O)[C@H](C(C)C)NC(=O)[C@H](CC2CCCCC2)NC(=O)[C@H](CCCNC(=N)N)NC1=O [Compound 1486] ({CH2CO}-Y(Carboxymethyl)YDWV[Bip]V[NMeA][dL]R[Cha]VTCA-NH2; thioether N-14)
0.32 µM	CC(C)C[C@H]1NC(=O)[C@H](C)N(C)C(=O)[C@H](C(C)C)NC(=O)[C@H](Cc2ccc(-c3ccccc3)cc2)NC(=O)[C@H](C(C)C)NC(=O)[C@H](Cc2c[nH]c3ccccc23)NC(=O)[C@H](CC(=O)O)NC(=O)[C@H](Cc2ccc(O)cc2)NC(=O)[C@H](Cc2ccccc2)NC(=O)CSC[C@@H](C(=O)N[C@@H](C)C(N)=O)NC(=O)[C@H]([C@@H](C)O)NC(=O)[C@H](C(C)C)NC(=O)[C@H](CC2CCCCC2)NC(=O)[C@H](CCCNC(=N)N)NC1=O [Compound 1487] ({CH2CO}-FYDWV[Bip]V[NMeA][dL]R[Cha]VTCA-NH2; thioether N-14)
0.04 µM	CC[C@H](C)[C@@H]1NC(=O)[C@H](Cc2ccc(-c3ccccc3)cc2)NC(=O)[C@H](C(C)C)NC(=O)[C@H](Cc2c[nH]c3ccccc23)NC(=O)[C@H](CC(=O)O)NC(=O)[C@H](Cc2ccc(O)cc2)NC(=O)[C@H](CN)NC(=O)CSC[C@@H](C(=O)N[C@@H](C)C(N)=O)NC(=O)[C@H]([C@@H](C)O)NC(=O)[C@H](C(C)C)NC(=O)[C@H](CC(C)C)NC(=O)[C@H](CCCNC(=N)N)NC(=O)[C@@H](CC(C)C)NC(=O)[C@H](C)N(C)C1=O [Compound 1488] ({CH2CO}-[Dap]YDWV[Bip]I[NMeA][dL]RLVTCA-NH2; thioether N-14)
0.04 µM	CC[C@H](C)[C@@H]1NC(=O)[C@H](Cc2ccc(-c3ccccc3)cc2)NC(=O)[C@H](C(C)C)NC(=O)[C@H](Cc2c[nH]c3ccccc23)NC(=O)[C@H](CC(=O)O)NC(=O)[C@H](Cc2ccc(O)cc2)NC(=O)[C@H](Cc2ccc(OCC(=O)O)cc2)NC(=O)CSC[C@@H](C(=O)N[C@@H](C)C(N)=O)NC(=O)[C@H]([C@@H](C)O)NC(=O)[C@H](C(C)C)NC(=O)[C@H](CC(C)C)NC(=O)[C@H](CCCNC(=N)N)NC(=O)[C@@H](CC(C)C)NC(=O)[C@H](C)N(C)C1=O [Compound 1489] ({CH2CO}-Y(Carboxymethyl)YDWV[Bip]I[NMeA][dL]RLVTCA-NH2; thioether N-14)
0.07 µM	CC[C@H](C)[C@@H]1NC(=O)[C@H](Cc2ccc(-c3ccccc3)cc2)NC(=O)[C@H](C(C)C)NC(=O)[C@H](Cc2c[nH]c3ccccc23)NC(=O)[C@H](CC(=O)O)NC(=O)[C@H](Cc2ccc(O)cc2)NC(=O)[C@H](CC(N)=O)NC(=O)CSC[C@@H](C(=O)N[C@@H](C)C(N)=O)NC(=O)[C@H]([C@@H](C)O)NC(=O)[C@H](C(C)C)NC(=O)[C@H](CC(C)C)NC(=O)[C@H](CCCNC(=N)N)NC(=O)[C@@H](CC(C)C)NC(=O)[C@H](C)N(C)C1=O [Compound 1490] ({CH2CO}-NYDWV[Bip]I[NMeA][dL]RLVTCA-NH2; thioether N-14)
0.09 µM	CC[C@H](C)[C@@H]1NC(=O)[C@H](Cc2ccc(-c3ccccc3)cc2)NC(=O)[C@H](C(C)C)NC(=O)[C@H](Cc2c[nH]c3ccccc23)NC(=O)[C@H](CC(=O)O)NC(=O)[C@H](Cc2ccc(O)cc2)NC(=O)[C@H](Cc2ccccc2)NC(=O)CSC[C@@H](C(=O)N[C@@H](C)C(N)=O)NC(=O)[C@H]([C@@H](C)O)NC(=O)[C@H](C(C)C)NC(=O)[C@H](CC(C)C)NC(=O)[C@H](CCCNC(=N)N)NC(=O)[C@@H](CC(C)C)NC(=O)[C@H](C)N(C)C1=O [Compound 1491] ({CH2CO}-FYDWV[Bip]I[NMeA][dL]RLVTCA-NH2; thioether N-14)
0.04 µM	CC[C@H](C)[C@@H]1NC(=O)[C@H](Cc2ccc(-c3ccccc3)cc2)NC(=O)[C@H](C(C)C)NC(=O)[C@H](Cc2c[nH]c3ccccc23)NC(=O)[C@H](CC(=O)O)NC(=O)[C@H](Cc2ccc(O)cc2)NC(=O)[C@H](CN)NC(=O)CSC[C@@H](C(=O)N[C@@H](C)C(N)=O)NC(=O)[C@H]([C@@H](C)O)NC(=O)[C@H](C(C)C)NC(=O)[C@H](CC2CCCCC2)NC(=O)[C@H](CCCNC(=N)N)NC(=O)[C@@H](CC(C)C)NC(=O)[C@H](C)N(C)C1=O [Compound 1492] ({CH2CO}-[Dap]YDWV[Bip]I[NMeA][dL]R[Cha]VTCA-NH2; thioether N-14)
